Results as given in patent US7504537B2, “Hydroxamic acid derivative and MMP inhibitor containing the same as active ingredient” (Dainippon Sumitomo Pharma Co., Ltd., priority 2001, dated 2009).

Assays:
Type in all cases: biochemical
MMP-3 = biological target: T1, MMP-3 (Homo sapiens, UniProt P08254); test: Test 1 Test on MMP-3 inhibiting activity (fluorogenic peptide substrate); settings: activated MMP-3, 37° C.; read-out: MMP-3 inhibition activity value
T1 construct: C-terminal truncated cDNA in which the cDNA encodes human prostromelysin; made in house; host or cells: E. coli
Protocol: Test 1 Test on MMP-3 Inhibiting Activity
C-terminal truncated cDNA in which the cDNA encodes human prostromelysin, was subcloned (proMMP-3, cDNA sequence in Nature, 348, 699-704 (1990)), was expressed in E. coli and then, the expressed protein was purified in accordance with the method described in Biochemistry 30, 6476-6483 (1991). proMMP-3 activation was carried out by treating with 1 mM 4-aminophenyl mercuric acetate for 60 minutes at 37° C.
Enzyme activity test was conducted by the method of C. G. Knight (FEBS Lett., 296(3), 263-266 (1992)).
A mixture of activated MMP-3 (20 nM, 10 μl), buffer solution (70 μl, pH 7.5 solution containing 100 mM Tris-HCl solution, 10 mM calcium chloride solution, 100 mM sodium chloride solution and 0.05% Brij-35 solution), MOCAc-Pro-Leu-Gly-Leu-A2pr(DNP)-Ala-Arg-NH2 in 0.1% DMSO solution (100 μM, 10 μl) and a test compound in DMSO solution was incubated for 1.5 hours at 37° C. The mixture was put on a 96 well-plate (100 μl/well) and the plate was cultured at 37° C. The enzyme activity in the presence of the compound was measured based on fluorescence intensity (λex 320 nm, λem 405 nm), and IC50 was calculated.

MMP-2 = biological target: T2, MMP-2 (Homo sapiens, UniProt P08253); test: Test 3 MMP-2 inhibition activity test (gelatinase activity assay kit); settings: activated human MMP-2, biotin labeled gelatin
T2 construct: purchased Boeringer Manheim (Roche Diagnostics)
T2 sequence (P08253 110-660): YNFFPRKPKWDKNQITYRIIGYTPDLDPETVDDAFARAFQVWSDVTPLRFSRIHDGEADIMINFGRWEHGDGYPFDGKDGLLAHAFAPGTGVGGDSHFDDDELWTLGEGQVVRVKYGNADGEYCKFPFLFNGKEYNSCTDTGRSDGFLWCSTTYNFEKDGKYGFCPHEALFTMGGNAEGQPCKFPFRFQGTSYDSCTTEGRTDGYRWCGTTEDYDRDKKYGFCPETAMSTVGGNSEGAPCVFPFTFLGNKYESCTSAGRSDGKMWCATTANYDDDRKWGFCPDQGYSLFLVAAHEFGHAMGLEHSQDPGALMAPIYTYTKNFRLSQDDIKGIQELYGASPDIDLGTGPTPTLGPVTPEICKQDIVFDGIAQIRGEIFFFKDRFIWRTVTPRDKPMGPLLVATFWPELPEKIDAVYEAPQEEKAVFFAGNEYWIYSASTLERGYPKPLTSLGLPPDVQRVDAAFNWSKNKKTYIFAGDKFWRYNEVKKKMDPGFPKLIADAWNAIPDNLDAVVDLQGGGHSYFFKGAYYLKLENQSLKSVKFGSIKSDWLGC
Protocol: TTC buffer solution was attached to a MMP-2 enzyme assay kit, and the solution was made of 50 mM tris, 1 mM calcium chloride solution and 0.05% Triton X-100 solution, and was adjusted to pH 7.5.
Test 3 MMP-2 Inhibition Activity Test
MMP-2 enzyme assay kit (Gelatinase Activity Assay, Roche.Diagonistics) was used.
A mixture of 1.2U human MMP-2 (20 μl, Boeringer Manheim 30U freezed dry product), TTC buffer (980 μl) and 2.5 mM 4-aminophenyl mercuric acetate solution (144 μl) was incubated at 37° C. for 30 minutes and then it was preserved under ice cooling until use.
A mixture of DMSO solution (2 μl) containing a definite concentration of the compound, biotin labeled gelatin (188 μl) and activated MMP-2 solution (10 μl) was put on a 96 well-assay plate (protein nonabsorbance type), well agitated and incubated at 37° C. for 1 hour. This solution was transferred to a Streptavidin-coating plate and agitated at 15° C, to 30° C. for 30 minutes. And then the solution was washed with TTC buffer solution (200 μl) three times. Thereto was added Streptavidin-POD (200 μl) and the mixture was agitated at 15° C. to 25° C. for 60 minutes, followed by washing with TTC buffer (200 μl) three times. Then, ABTS solution (200 μl) was added thereto and after standing at room temperature for 40 minutes, furuorescence intensity was measure at 405 nm and IC50 was calculated.
In case of the above test, a control and a blank were prepared when the well was prepared as mentioned below. DMSO (2 μl) was used as a control instead of a sample solution. In the case of a blank, DMSO (2 μl) instead of the sample solution and the solution (10 μl) prepared in the same manner as preparation of activated MMP-2 solution but without adding 1.2U human MMP-2, instead of activated MMP-2 solution (10 μl), were used.

MMP-9 = MMP-9 (Homo sapiens, UniProt P14780); test: Test 4 MMP-9 inhibiting activity test (biotin labeled gelatin); settings: activated human MMP-9, biotin labeled gelatin; read-out: MMP-9 inhibition activity value
Protocol: Test 4 MMP-9 Inhibiting Activity Test
A mixture of buffer solution (190 μl; pH 7.5 solution containing 50 mM Tris-HCl solution, 0.5 m sodium chloride solution and 5 mM calcium chloride solution), human MMP-9 (10 μl) and trypsin solution (20 μl; trypsin 3 mg in activated buffer (5 ml)) was incubated at 37° C. for 10 minutes. Thereto was added aprotinine solution (20 μl; aprotinine (3 mg) in buffer (5 ml)) and the mixture was incubated at 37° C. for 10 minutes, followed by addition of buffer (2 ml). The mixture was preserved under cooling with ice until use.
A mixture of DMSO solution (2 μl) containing definite concentration of the compound, biotin labeled gelatin (188 μl) and activated MMP-9 solution (10 μl) was put on a 96 well-assay plate (protein nonabsorbance type), well agitated, and incubated at 37° C. for 1 hour. This solution was transferred to Streptavidin-coating plate, and agitated at 15° C. to 30° C. for 30 minutes. And then the solution was washed with TTC buffer solution (200 μl) three times. Thereto was added Streptavidin-POD (200 μl) and the mixture was agitated at 15° C. to 25° C. for 60 minutes, followed by washing with TTC buffer (200 μl) three times. Then, ABTS solution (200 μl) was added thereto and after standing at room temperature for 40 minutes, furuorescence intensity was measured at 405 nm and IC50 was calculated.
In case of the above test, DMSO (2 μl) was used as a control instead of a sample solution. In the case of a blank, DMSO (2 μl) instead of the sample solution and the solution (10 μl) prepared in the same manner as preparation of […] but without adding 1.2 Uhuman MMP-9, instead of activated MMP-9 solution (10 μl), were used.

Chain of MMP-9 (P14780 107-707 limits assumed): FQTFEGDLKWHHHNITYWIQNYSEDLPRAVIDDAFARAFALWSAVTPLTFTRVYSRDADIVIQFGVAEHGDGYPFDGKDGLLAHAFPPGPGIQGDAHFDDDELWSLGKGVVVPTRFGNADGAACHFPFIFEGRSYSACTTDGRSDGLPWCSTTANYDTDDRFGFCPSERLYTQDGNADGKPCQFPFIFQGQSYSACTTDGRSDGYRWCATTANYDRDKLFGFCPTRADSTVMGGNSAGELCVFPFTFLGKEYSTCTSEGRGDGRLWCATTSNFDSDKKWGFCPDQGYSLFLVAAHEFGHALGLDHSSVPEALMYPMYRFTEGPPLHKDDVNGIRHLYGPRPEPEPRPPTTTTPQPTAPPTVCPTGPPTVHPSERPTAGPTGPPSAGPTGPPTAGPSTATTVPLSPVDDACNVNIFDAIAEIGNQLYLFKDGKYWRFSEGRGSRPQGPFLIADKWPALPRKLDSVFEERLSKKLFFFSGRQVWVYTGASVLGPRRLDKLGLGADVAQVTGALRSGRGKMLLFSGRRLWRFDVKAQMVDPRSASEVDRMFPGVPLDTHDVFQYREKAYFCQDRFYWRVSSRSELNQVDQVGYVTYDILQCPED
T1 sequence (P08254 100-272 limits assumed): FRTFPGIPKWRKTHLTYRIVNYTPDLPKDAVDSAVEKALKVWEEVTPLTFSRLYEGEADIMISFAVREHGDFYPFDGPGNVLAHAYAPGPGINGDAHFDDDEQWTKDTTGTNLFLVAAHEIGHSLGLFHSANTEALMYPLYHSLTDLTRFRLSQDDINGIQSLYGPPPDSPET

Row | SMILES | IC50 (MMP-3) [nM] | IC50 (MMP-2) [nM] | IC50 (MMP-9) [nM]
1 | CCOC(=O)CCN(C1(C(=O)NO)CCOCC1)S(=O)(=O)c1ccc(Oc2ccc(S(C)(=O)=O)cc2)cc1 [Example 31, Ethyl N-{4-[(hydroxyamino)carbonyl]tetrahydro-2H-pyran-4-yl}-N-({4-[4-(methylsulfonyl)phenoxy]phenyl}sulfonyl)-β-alaninate] | 59 | 800 | 4900
2 | CCOCCN(C1(C(=O)NO)CCCC1)S(=O)(=O)c1ccc(Oc2ccc(S(C)(=O)=O)cc2)cc1 [Example 45, 1-[(2-Ethoxyethyl)({4-[4-(methylsulfonyl)phenoxy]phenyl}sulfonyl)amino]-N-hydroxycyclopentanecarboxamide] | 1.5 | > 100 | > 100
3 | CS(=O)(=O)c1ccc(Oc2ccc(CC3Sc4ccc(C(=O)O)cc4N(CC(=O)NO)C3=O)cc2)cc1 (stereo not drawn) [Example 50] | 38 | > 100 | 244
4 | CS(=O)(=O)c1ccc(Oc2ccc(S(=O)(=O)N(Cc3ccccc3)C3(C(=O)NO)CCOCC3)cc2)cc1 [Example 12, 4-[Benzyl({4-[4-(methylsulfonyl)phenoxy]phenyl}sulfonyl)amino]-N-hydroxytetrahydoro-2H-pyrane-4-carboxamide] | 16 | < 100 | < 100
5 | CCOC(=O)CN(CC(=O)NO)S(=O)(=O)c1ccc(Oc2ccc(S(C)(=O)=O)cc2)cc1 [Example 22, Ethyl N-{[(hydroxyamino)carbonyl]methyl}-N-({4-[4-(methylsulfonyl)phenoxy]phenyl}sulfonyl)-glycinate] | 26.6 | 1200 | 1400
